# Experimental data published in patent US20140329914A1, “Amphiphilic Peptides for Thoracic Air Leakage Occlusion” (3-D Matrix Ltd., priority 2011, published 2014).
# Assays:
# [1] = set-up: species or system miniature swine (Gottingen); conditions: in vivo
# Procedure: Blood for hematological examination was collected by catheter on the day of operation, 3 days after operation, and 7 days after operation, and the day of necropsy. Blood was collected into EDTA-2K coated blood collection tubes (VP-DK052K05, TERUMO Ltd.). Red blood cell count (RBC), white blood cell count (WBC), hemoglobin concentration (HGB), hematocrit (HCT), and platelet count (PLT) were measured using a multi-channel blood cell counter (Sysmex K-4500, Sysmex
# [2] = in vivo
# Procedure: All animals were weighed with a digital platform scale (DUE600ST/M3s-A, Mettler Toledo Ltd.) on the day of operation, 5 days post-operation, and the day of autopsy.
# Food consumption was checked every day. Any remaining amount of food was weighed with a digital platform scale (DUE600ST/ID3s-A, Mettler Toledo Ltd.) when present. If there was no uneaten diet, food consumption was recorded as 500 g.
# [3] = Blood biochemical examination; format: in vivo, miniature swine (Gottingen)
# Procedure: Blood for biochemical examination was centrifuged at 3,000 rpm at 4° C. for 15 min to obtain serum samples used to measure AST, ALT, ALP, total protein (TP), albumin (Alb), protein fraction (alb), alpha 1 globulin (α1-glb), alpha 2 globulin (α-glb), beta globulin (β-glb), gamma globulin (γ-glb), albumin/globulin ratio (A/G), total bilirubin (T-Bil), urea nitrogen (UN), creatinine (CRE), glucose (Glu), total cholesterol (T-Cho), triglycerides (TG), sodium, potassium, chloride, calcium, inorganic phosphate (IP), and C-reactive protein (CRP).
structure (smiles),measurement,setting,value
"CC(=O)N[C@@H](CCCNC(=N)N)C(=O)N[C@@H](C)C(=O)N[C@@H](CC(=O)O)C(=O)N[C@@H](C)C(=O)N[C@@H](CCCNC(=N)N)C(=O)N[C@@H](C)C(=O)N[C@@H](CC(=O)O)C(=O)N[C@@H](C)C(=O)N[C@@H](CCCNC(=N)N)C(=O)N[C@@H](C)C(=O)N[C@@H](CC(=O)O)C(=O)N[C@@H](C)C(=O)N[C@@H](CCCNC(=N)N)C(=O)N[C@@H](C)C(=O)N[C@@H](CC(=O)O)C(=O)N[C@@H](C)C(N)=O [RADA16, Ac-(RADA)4-CONH2]",WBC change,[1],elevated level of WBC
same,body weight and food intake,[2],generally maintained
same,general condition,[2],good general condition
same,CRE,"[3]; AD3: 3 days after treatment, per animal and Mean (n=3)",1.12 mg/dL
same,CRP change,[3]; in vivo,elevated level of CRP
